Source: patent US20240100065A1, “METHODS FOR TREATING RECEPTOR-INTERACTING PROTEIN KINASE 1-MEDIATED DISEASES” (Genzyme Corporation, priority 2022, published 2024)
Values after ≈ are worked out from the molar mass of the structure shown. Values joined by “and” are separate entries in the source; they are usually repeats but may differ in a detail not shown here. Equal values may be shown once.

Assays:
CYP3A4 = experiment: Plasma 4β-hydroxycholesterol Day 14/Day 1 ratio (CYP3A4 induction); assay type: in vivo, human; details: repeated doses up to 20 mg BID, 14 days
Experimental: The plasma 4β-hydroxycholesterol on Day 14 versus Day 1 pre-dose concentration ratios were calculated to evaluate the potential for CYP3A4 enzyme induction by Compound 1 after repeated doses in Part 2.
PK population included all participants exposed to Compound 1 with no major or critical deviations related to Compound 1 and for whom PK data were considered sufficient and interpretable. PK parameters were summarized by descriptive statistics for each dose level group. Distribution of Tmax values was represented by histogram plots for each dose level group. In Part 1a, dose proportionality was assessed using a linear model on Cmax, AUClast and AUC. […] Steady state was assessed on Ctrough using a non-linear model. Accumulation was assessed using a linear model on log-transformed accumulation ratio. Dose proportionality was assessed using a power model on Cmax and AUCtau on Day 1 and Day 14, separately. […] In Part 1b, CSF concentration was described by dose level group and CSF to plasma unbound concentration ratios calculated were described in the same way. 4β-hydroxycholesterol on Day 14 versus Day 1 pre-dose concentration ratios were summarized using descriptive statistics by dose level group and point estimates with 90% confidence interval (90% CI) for the geometric mean of the log-transformed Day14/Day1 ratio was calculated in Part 2. […]

pRIPK1 = molecular target: T1, pRIPK1 (Homo sapiens, UniProt Q13546); experiment: Population PK/PD analysis of pRIPK1; assay type: in vivo
T1 construct: Human PBMC are a primary cell type that express endogenous RIPK kinase; endogenous in cells; host or cells: human PBMC isolated from blood of healthy participants
T1 sequence (Q13546 1-671): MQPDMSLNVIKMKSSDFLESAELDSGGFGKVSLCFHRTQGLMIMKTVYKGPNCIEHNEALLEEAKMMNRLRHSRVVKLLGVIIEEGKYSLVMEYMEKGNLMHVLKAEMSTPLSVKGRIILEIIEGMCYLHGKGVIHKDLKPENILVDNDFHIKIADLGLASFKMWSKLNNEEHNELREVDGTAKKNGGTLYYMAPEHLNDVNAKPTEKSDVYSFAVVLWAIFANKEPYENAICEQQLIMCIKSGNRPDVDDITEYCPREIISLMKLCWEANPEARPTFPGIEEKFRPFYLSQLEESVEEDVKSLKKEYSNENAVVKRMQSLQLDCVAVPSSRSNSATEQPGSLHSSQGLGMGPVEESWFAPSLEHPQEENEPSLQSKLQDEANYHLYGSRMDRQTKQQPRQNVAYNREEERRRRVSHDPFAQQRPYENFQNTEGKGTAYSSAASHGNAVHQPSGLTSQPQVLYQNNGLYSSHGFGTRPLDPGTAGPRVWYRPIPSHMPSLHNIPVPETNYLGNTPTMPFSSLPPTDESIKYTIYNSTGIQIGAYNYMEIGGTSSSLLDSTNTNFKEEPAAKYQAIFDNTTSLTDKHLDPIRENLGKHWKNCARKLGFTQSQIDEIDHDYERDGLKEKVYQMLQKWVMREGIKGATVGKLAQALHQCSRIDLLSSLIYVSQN
Experimental: An exploratory population pharmacokinetic/pharmacodynamic analysis of phosphorylated receptor-interacting protein kinase 1(pRIPK1) in healthy participants after single (SAD) and repeated (MAD) administrations of Compound 1 was carried out to develop a population PK/PD model from data after single and repeated doses in healthy adults and to derive individual parameters for each dose cohort.
The population PK/PD analysis was performed using the stochastic approximation expectation maximization (SAEM) algorithm for nonlinear mixed-effects models implemented in MONOLIX software (R1 2020). The observed plasma concentrations were used to develop the model with plasma concentrations from placebo participants and blow limit of quantitation (BLQ) plasma concentrations from verum participants being fixed to zero. Classical direct and indirect inhibitory models were evaluated. Model selection was based on objective function value Akaike and Bayesian Information criteria as well as standard goodness-of-fit plots (Psychol Methods. 2012 June; 17(2):228-43; Pharmaceutics. 2020 June; 12(6): 578.). From selected final population PK/PD model, individual PD parameters were derived and summarized by descriptive statistical analyses by study and dose level.
A total of 433 samples in 70 participants was considered (101, 121 and 211 samples after placebo, single dose and repeated doses, respectively). No data from potential outliers were excluded. In placebo participants, a very large inter-cohort and inter-individual variability was observed. […] Selection of structural PK/PD model confirmed that a direct relationship best described the data overall.

[1] = 6-month rat toxicology study (NOAEL exposure); assay type: in vivo
[2] = Nonhuman primate toxicology study (NOAEL exposure); assay type: in vivo; details: 20 mg BID vs nonhuman primate study
[3] = 20 mg QD vs 6-month rat toxicology study

## CC(C)(C(=O)N1CCOc2c(C#N)cncc2C1)C(F)F [Compound 1, 4-(3,3-difluoro-2,2-dimethyl-propanoyl)-3,5-dihydro-2H-pyrido[3,4-f] [1,4]oxazepine-9-carbonitrile]
CYP3A4
  Potential for CYP3A4 induction: no potential for CYP3A4 induction
pRIPK1; derived typical value
  EC91, plasma conc for 91% decrease in E0: 23.9 ng/mL
  EC92, plasma conc for 92% decrease in E0: 30.7 ng/mL
  EC93, plasma conc for 93% decrease in E0: 43.3 ng/mL
  EC94, plasma conc for 94% decrease in E0: 76.1 ng/mL
  EC95, plasma conc for 95% decrease in E0: 0.6 µg/mL
pRIPK1; derived typical value, read-out: EC50, plasma conc for 50% decrease in E0 (converted)
  EC50: 6.2 nM
pRIPK1; derived typical value, read-out: EC90, plasma conc for 90% decrease in E0
  EC90: 0.0197 µg/mL (≈ 0.0667 µM)
pRIPK1; population PK/PD model
  0(Gamma): 49.5%
  E0, baseline effect: 8541 AU_signal
  σprop: 44.5%
  ω(E0): 73.7%
  ω(IC50): 71.4%
  ω(Imax): 192%
pRIPK1; population PK/PD model, sigmoidal Imax
  Gamma: 1.17
pRIPK1; population PK/PD model, typical value, SAD and MAD data
  Imax, maximum inhibitory effect on pRIPK1: 95.1% and 95%
pRIPK1; population PK/PD model, typical value, SAD and MAD data, read-out: IC50, plasma concentration needed for 50% of Imax (pRIPK1) (converted)
  IC50: 5.69 nM
[1]; 15 mg BID vs 6-month rat toxicology study
  Human Cmax and AUCtau, fold lower than exposure at NOAEL: 10 fold
[1]; 20 mg BID vs female rats
  Human AUC0-24 h, fold lower than AUC0-24 at rat NOAEL: < 8 fold
  Human Cmax, fold lower than Cmax at rat NOAEL: < 10 fold
[1]; [3]
  Human AUC0-24, fold lower than exposure at NOAEL: 17 fold
  Human Cmax, fold lower than exposure at NOAEL: 15 fold
[1]; rat, in vivo, female rats, end of Week 26, 6-month study
  Cmax: 13.1 µM
[1]; rat, in vivo, female rats, end of Week 26, 6-month study, read-out: AUC0-24 at the NOAEL
  AUC(0-t): 126 µM·h
[2]
  Safety margin relative to the NOAEL exposure: 10 fold
